Experimental data taken from patent US10725042B2, “Methods of diagnosing and treating cancer” (Case Western Reserve University, priority 2012, dated 2020).

Experiments:
DLD1/UDG+/+ cells = assay: Cell cycle analysis, UDG+/+ cells; assay type: cell-based, human; conditions: pemetrexed 25 nM
Procedure: For cell cycle analysis, 10^6 cells (DLD1/UDG^+/+ and DLD1/UDG^−/−) were plated in 100-mm tissue culture dishes and exposed to pemetrexed (25 nM). After 6, 24 and 72 h of culture, cells were fixed with 80% methanol and washed with ice-cold 1% BSA/PBS. DNA was stained with 20 μg/mL propidium iodide (Sigma-Aldrich) and 2.5 μg/mL of DNase-free RNase A (Roche). The DNA fluorescence of propidium iodide-stained cells was measured with an Elite ESP flow cytometer/cell sorter (Coulter, Miami, Fla.).

DLD1/UDG−/− cells = assay: Colony survival (clonogenic) assay, UDG−/− cells; assay type: cell-based, human
Procedure: Recombinant virus was grown in 293T cells and subsequently used to infect DLD1 cells. Selection of positively transfected clones was achieved by the addition of G418 to the culture medium. A second infection of transfected clones with Cre-recombinase adenovirus caused excision of the neomycin resistance cassette. Dflag cell line was produced by transfection of UDG expression vector in UDG^−/− cells to restore UDG activity.
Tumor cells (500-2000/dish) were plated and treated with pemetrexed (0-400 nM), 5-fluorouracil (0-20 μM), temozolomide (0-1500 μM), or cisplatin (0-40 μM). After 7 days, surviving colonies were stained with methylene blue for 30 min at room temperature and the colonies containing more than 50 cells were counted to generate survival curves.

A549 siUNG cells = assay: Colony survival assay, A549 siUNG cells; assay type: cell-based, human
Procedure: (§1) For cells in suspension, colony survival was determined by crystal violet staining of colonies formed after 10-day exposure of 5×10^3 cells to pemetrexed in soft agar. For adherent cells, colony survival was determined by methylene blue staining of colonies formed after 10-day exposure of 100 cells to pemetrexed in 6-well culture dishes. Only colonies containing ≥50 cells were counted. Data points represent percent of colonies relative to untreated control averaged over 3 experiments.
(§2) UNG directed shRNA and siRNA plasmids were purchased from Origene. Transfection was carried out according to manufacturer specifications. Stably transfected clones (shRNA) were selected with puromycin with subsequent expansion of a well-isolated colony of cells.

H1975 66 shUNG tumors = assay: H1975 66 shUNG xenografts in NOD-SCID mice; assay type: in vivo
Procedure: Tumor cells in early passage (5×10^6) were injected into bilateral flanks of female NODSCID mice (6 weeks old). When tumor volumes reached 100 mm3, mice were divided into control (n=4) and treatment (n=6) groups. Mice bearing tumors were treated with pemetrexed (150 mg/kg) or 100 μl sterile PBS (control) by daily intraperitoneal injection (IP) for 5 consecutive days. Tumor measurements were taken every 2 days and response was quantified by tumor volume.

[1] = tested on: AP sites in DNA of UDG−/− cells; assay: AP site assay (ARP), UDG−/− cells; assay type: cell-based, human; conditions: pemetrexed 0-400 nM, 24 hrs
Procedure: (§3) The number of AP sites was measured using ARP (aldehyde reactive probe) reagent. The assay was performed as previously described. Briefly, cells (2×10^6) were collected after drug treatment and DNA was extracted. DNA (10 μg) was incubated with 15 μl of 1 mM ARP (Dojindo Laboratories, Kumamoto, Japan), and then precipitated and washed with ice-cold ethanol. The ARP-labeled DNA was then heat-denatured at 100° C. for 5 min, quickly chilled on ice and mixed with an equal volume of 2 M ammonium acetate. The DNA was then immobilized on a BA-S 85 nitrocellulose membrane (Schleicher and Schuell, Dassel, Germany) using a minifold II vacuum filter device (Schleicher and Schuell, Dassel, Germany). The membrane was incubated with 0.25% BSA-PBS containing streptavidin-conjugated horseradish peroxidase (BioGenex, SanRamon, Calif.) at room temperature for 40 min with gentle shaking. ARP-labeled AP sites were visualized by chemiluminescence (Amersham Corp, Piscataway, N.J.) followed by quantitative densitometry using NIH Image J software.

[2] = treatment of lung cancer; cited from earlier work
A549 parental cells = assay: Colony survival assay, A549 parental cells (Example 2); assay type: cell-based; conditions: Homo sapiens, read-out: pemetrexed IC50
Procedure: as §1

H1975 cells = assay: Colony survival assay, H1975 parental cells; assay type: cell-based; conditions: Homo sapiens, NCI-H1975, read-out: pemetrexed IC50
Procedure: as §1

H1299/PR-1 cells = assay: Colony survival assay, H1299/PR-1 pemetrexed-resistant subline; assay type: cell-based, human; conditions: PR-1 vs H1299 parental, colony survival
Procedure: as §1
H1299 cells were exposed to step-wise increasing concentrations of pemetrexed over a period of 4 months. UNG expression was monitored in the bulk population at 2, 8, 12 and 16 weeks prior to administration of the induction dosage and at 24 weeks in a population of bulk chronically exposed cells that had been without pemetrexed for 8 weeks. H1299 cells capable of growth in 50 nM pemetrexed selection pressure were subcloned by limiting dilution in 96 well plates. Independent sublines were designated H1299/PR-1 and H1299/PR-2.

[3] = tested on: AP sites in DNA of H460 cells; assay: AP site assay (ARP), H460 cells; assay type: cell-based, human; conditions: pemetrexed 0-400 nM, MX 6 mM, 24 hrs
Procedure: as §3

H1975 67 shUNG cells = assay: Colony survival assay, H1975 67 shUNG cells; assay type: cell-based; conditions: Homo sapiens, NCI-H1975, read-out: pemetrexed IC50
Procedure: as §1, §2

Nc1nc2[nH]cc(CCc3ccc(C(=O)N[C@@H](CCC(=O)O)C(=O)O)cc3)c2c(=O)[nH]1 [pemetrexed]
cells transiently arrested in S-phase (DLD1/UDG+/+ cells; 24 hr (untreated 17%)): 21% | cells in the subG1 compartment (DLD1/UDG+/+ cells; 72 hr): 6% | IC50 (DLD1/UDG−/− cells; Homo sapiens, DLD-1, UDG−/− cells, interpolated from dose-response survival curves, read-out: IC50 value for pemetrexed): 20 nM | sensitivity of UDG−/− cells relative to UDG+/+ cells (DLD1/UDG−/− cells; UDG−/− vs UDG+/+): 10 times | sensitivity of A549 siRNA cells compared to parental cells (A549 siUNG cells; A549 siUNG vs parental): 7 fold | IC50 (A549 siUNG cells; Homo sapiens, A549 siUNG, colony survival, read-out: pemetrexed IC50): 60.5 nM | tumors smaller than untreated controls (H1975 66 shUNG tumors; H1975 66 shUNG tumors, day 20, pemetrexed 150 mg/kg IP x5): 55.6% | tumor quadrupling time (H1975 66 shUNG tumors; H1975 shUNG tumors, pemetrexed 150 mg/kg IP, 5 daily injections): 13.67 ± 0.28 days | AP sites in DNA [1]: lack of detectable AP sites | response rate [2]: 30-40% | IC50 (A549 parental cells): 416 nM | IC50 (H1975 cells): 777 nM | relative resistance to pemetrexed compared to parental cells (H1299/PR-1 cells): 25 fold | ARP-detected AP sites [3]: increased as the concentration of pemetrexed increased | IC50 (H1975 67 shUNG cells): 146 nM
